# Assay results reported in patent publication US7767240B2, “Microbiological control in poultry processing” (priority 2001, dated 2010).
# What was measured:
# Experiment in all cases: Bacteria count per bird over 20-day storage (Example 4)
# Format in all cases: cell-based
# Conditions in all cases: pH 8
# [1] = system: Salmonella enteritidis ATCC 13076
# Protocol: (§1) A study was conducted to determine the effect of Clorox® bleach, and 1,3-dibromo-5,5-dimethylhydantoin (DBDMH) on carcass bacteria residual after 1.5 hour in a chill tank solution and spoilage 20-day shelf life longevity (caused by bacteria contamination). Tests were conducted at pH 8 (adjusted by trisodium phosphate). Skin pigmentation (Minolta Color Meter L value or Lightness, a value or redness and b value or yellowness) were determined before and post-processing.
# (§2) In general the study involved normal processing of 56-day-old birds, immersing carcasses first in a warm bath containing 10^4 per mL Escherichia coli, 10^4 per mL Salmonella enteritidis, 10^4 per mL Pseudomonas aeruginosa, 10^4 per mL Campylobacter jejuni, and 10^4 per mL spoilage bacteria each from […] strains (Listeria monocytogenes and Shigella sonnei). Carcass were then immersed in a chill tank “soup”, containing normal organic fluids (blood, fat, skin, and meat particles) and containing various disinfectants (termed test materials).
# (§3) A DBDMH stock solution and test solutions, a bacteria stock solution, and a “chicken soup” were prepared as in Example 3. In addition, the bacterial broth treatments, the whole bird wash sampling procedure, and the methodologies used for quantitative or qualitative determinations for bacterial organisms were conducted as in Example 3.
# (§4) In greater detail the trial events and experimental design used in this group of tests were as follows: • a) Test microorganisms used were: • Escherichia coli ATCC 11229 • Pseudomonas aeruginosa ATCC 15442 • Salmonella enteritidis ATCC 13076 • Shigella sonnei ATCC 9290 • Listeria monocytogenes ATCC 7644 • Campylobacter jejuni ATCC 29428 • b) Test Procedure: All test strains were grown individually at 35° C. for 24 hours in the media specified in Table 12. Cells were harvested by centrifugation at 10,000×g for 10 minutes and washed twice with Butterfield's Phosphate Buffer (BPB of pH 7.2). Cells were resuspended in BPB to obtain a cell suspension of approximately 1.0×10^8 CFU/mL for each microorganism. The target inoculum levels were approximately 10^6 CFU/mL in the final test solutions. In the cases of S. enteritidis and P. aeruginosa the species were washed by pouring into prepared sterile centrifuge tubes with cheesecloth filters. The culture was then pelleted and washed using above techniques and repeated 3 times. • c) The birds (56 days old) were processed under normal commercial conditions. • d) The bacteria were added to a large batch of the “chicken soup”, and then aliquots of the resultant mixture were distributed equally among the chill waters used for each test. Then the particular disinfectant composition under test was added to one of the chill waters. […]
# [2] = system: Campylobacter jejuni ATCC 29428
# Protocol: as §1, §2, §3, §4
# [3] = system: Escherichia coli ATCC 11229
# Protocol: as §1, §2, §3, §4
# [4] = system: Listeria monocytogenes ATCC 7644
# Protocol: as §1, §2, §3, §4
# [5] = system: Shigella sonnei ATCC 9290
# Protocol: as §1, §2, §3, §4
smiles,measurement,setting,value
"CC1(C)C(=O)N(Br)C(=O)N1Br [DBDMH, 1,3-dibromo-5,5-dimethylhydantoin]","average bacteria count per bird, S. enteritidis","[1]; Day 0, 10 ppm",292 per bird
same,"average bacteria count per bird, S. enteritidis","[1]; Day 0, 20 ppm",12 per bird
same,"average bacteria count per bird, S. enteritidis","[1]; Day 2, 10 ppm",344 per bird
same,"average bacteria count per bird, S. enteritidis","[1]; Day 2, 20 ppm",18 per bird
same,"average bacteria count per bird, S. enteritidis","[1]; Day 4, 10 ppm",394 per bird
same,"average bacteria count per bird, S. enteritidis","[1]; Day 4, 20 ppm",27 per bird
same,"average bacteria count per bird, S. enteritidis","[1]; Day 6, 10 ppm",433 per bird
same,"average bacteria count per bird, S. enteritidis","[1]; Day 6, 20 ppm",55 per bird
same,"average bacteria count per bird, S. enteritidis","[1]; Day 8, 10 ppm",507 per bird
same,"average bacteria count per bird, S. enteritidis","[1]; Day 8, 20 ppm",104 per bird
same,"average bacteria count per bird, S. enteritidis","[1]; Day 10, 10 ppm",616 per bird
same,"average bacteria count per bird, S. enteritidis","[1]; Day 10, 20 ppm",212 per bird
same,"average bacteria count per bird, S. enteritidis","[1]; Day 12, 10 ppm",740 per bird
same,"average bacteria count per bird, S. enteritidis","[1]; Day 12, 20 ppm",413 per bird
same,"average bacteria count per bird, S. enteritidis","[1]; Day 14, 10 ppm",919 per bird
same,"average bacteria count per bird, S. enteritidis","[1]; Day 14, 20 ppm",832 per bird
same,"average bacteria count per bird, S. enteritidis","[1]; Day 16, 10 ppm",1081 per bird
same,"average bacteria count per bird, S. enteritidis","[1]; Day 16, 20 ppm",1711 per bird
same,"average bacteria count per bird, S. enteritidis","[1]; Day 18, 10 ppm",1286 per bird
same,"average bacteria count per bird, S. enteritidis","[1]; Day 18, 20 ppm",2074 per bird
same,"average bacteria count per bird, S. enteritidis","[1]; Day 20, 10 ppm",1513 per bird
same,"average bacteria count per bird, S. enteritidis","[1]; Day 20, 20 ppm",2258 per bird
same,"average bacteria count per bird, C. jejuni","[2]; Day 0, 10 ppm",519 per bird
same,"average bacteria count per bird, C. jejuni","[2]; Day 0, 20 ppm",17 per bird
same,"average bacteria count per bird, C. jejuni","[2]; Day 2, 10 ppm",573 per bird
same,"average bacteria count per bird, C. jejuni","[2]; Day 2, 20 ppm",25 per bird
same,"average bacteria count per bird, C. jejuni","[2]; Day 4, 10 ppm",627 per bird
same,"average bacteria count per bird, C. jejuni","[2]; Day 4, 20 ppm",39 per bird
same,"average bacteria count per bird, C. jejuni","[2]; Day 6, 10 ppm",671 per bird
same,"average bacteria count per bird, C. jejuni","[2]; Day 6, 20 ppm",78 per bird
same,"average bacteria count per bird, C. jejuni","[2]; Day 8, 10 ppm",834 per bird
same,"average bacteria count per bird, C. jejuni","[2]; Day 8, 20 ppm",157 per bird
same,"average bacteria count per bird, C. jejuni","[2]; Day 10, 10 ppm",1043 per bird
same,"average bacteria count per bird, C. jejuni","[2]; Day 10, 20 ppm",294 per bird
same,"average bacteria count per bird, C. jejuni","[2]; Day 12, 10 ppm",1309 per bird
same,"average bacteria count per bird, C. jejuni","[2]; Day 12, 20 ppm",594 per bird
same,"average bacteria count per bird, C. jejuni","[2]; Day 14, 10 ppm",1551 per bird
same,"average bacteria count per bird, C. jejuni","[2]; Day 14, 20 ppm",1191 per bird
same,"average bacteria count per bird, C. jejuni","[2]; Day 16, 10 ppm",1880 per bird
same,"average bacteria count per bird, C. jejuni","[2]; Day 16, 20 ppm",2259 per bird
same,"average bacteria count per bird, C. jejuni","[2]; Day 18, 10 ppm",2359 per bird
same,"average bacteria count per bird, C. jejuni","[2]; Day 18, 20 ppm",2835 per bird
same,"average bacteria count per bird, C. jejuni","[2]; Day 20, 10 ppm",2789 per bird
same,"average bacteria count per bird, C. jejuni","[2]; Day 20, 20 ppm",3059 per bird
same,"average bacteria count per bird, E. coli","[3]; Day 0, 10 ppm",861 per bird
same,"average bacteria count per bird, E. coli","[3]; Day 0, 20 ppm",22 per bird
same,"average bacteria count per bird, E. coli","[3]; Day 2, 10 ppm",966 per bird
same,"average bacteria count per bird, E. coli","[3]; Day 2, 20 ppm",31 per bird
same,"average bacteria count per bird, E. coli","[3]; Day 4, 10 ppm",1050 per bird
same,"average bacteria count per bird, E. coli","[3]; Day 4, 20 ppm",49 per bird
same,"average bacteria count per bird, E. coli","[3]; Day 6, 10 ppm",1124 per bird
same,"average bacteria count per bird, E. coli","[3]; Day 6, 20 ppm",100 per bird
same,"average bacteria count per bird, E. coli","[3]; Day 8, 10 ppm",1364 per bird
same,"average bacteria count per bird, E. coli","[3]; Day 8, 20 ppm",204 per bird
same,"average bacteria count per bird, E. coli","[3]; Day 10, 10 ppm",1621 per bird
same,"average bacteria count per bird, E. coli","[3]; Day 10, 20 ppm",401 per bird
same,"average bacteria count per bird, E. coli","[3]; Day 12, 10 ppm",2063 per bird
same,"average bacteria count per bird, E. coli","[3]; Day 12, 20 ppm",775 per bird
same,"average bacteria count per bird, E. coli","[3]; Day 14, 10 ppm",2581 per bird
same,"average bacteria count per bird, E. coli","[3]; Day 14, 20 ppm",1453 per bird
same,"average bacteria count per bird, E. coli","[3]; Day 16, 10 ppm",3005 per bird
same,"average bacteria count per bird, E. coli","[3]; Day 16, 20 ppm",2933 per bird
same,"average bacteria count per bird, E. coli","[3]; Day 18, 10 ppm",3617 per bird
same,"average bacteria count per bird, E. coli","[3]; Day 18, 20 ppm",3645 per bird
same,"average bacteria count per bird, E. coli","[3]; Day 20, 10 ppm",4460 per bird
same,"average bacteria count per bird, E. coli","[3]; Day 20, 20 ppm",4036 per bird
same,"average bacteria count per bird, L. monocytogenes","[4]; Day 0, 10 ppm",528 per bird
same,"average bacteria count per bird, L. monocytogenes","[4]; Day 0, 20 ppm",13 per bird
same,"average bacteria count per bird, L. monocytogenes","[4]; Day 2, 10 ppm",601 per bird
same,"average bacteria count per bird, L. monocytogenes","[4]; Day 2, 20 ppm",19 per bird
same,"average bacteria count per bird, L. monocytogenes","[4]; Day 4, 10 ppm",670 per bird
same,"average bacteria count per bird, L. monocytogenes","[4]; Day 4, 20 ppm",28 per bird
same,"average bacteria count per bird, L. monocytogenes","[4]; Day 6, 10 ppm",741 per bird
same,"average bacteria count per bird, L. monocytogenes","[4]; Day 6, 20 ppm",55 per bird
same,"average bacteria count per bird, L. monocytogenes","[4]; Day 8, 10 ppm",880 per bird
same,"average bacteria count per bird, L. monocytogenes","[4]; Day 8, 20 ppm",107 per bird
same,"average bacteria count per bird, L. monocytogenes","[4]; Day 10, 10 ppm",1096 per bird
same,"average bacteria count per bird, L. monocytogenes","[4]; Day 10, 20 ppm",218 per bird
same,"average bacteria count per bird, L. monocytogenes","[4]; Day 12, 10 ppm",1335 per bird
same,"average bacteria count per bird, L. monocytogenes","[4]; Day 12, 20 ppm",442 per bird
same,"average bacteria count per bird, L. monocytogenes","[4]; Day 14, 10 ppm",1564 per bird
same,"average bacteria count per bird, L. monocytogenes","[4]; Day 14, 20 ppm",843 per bird
same,"average bacteria count per bird, L. monocytogenes","[4]; Day 16, 10 ppm",1901 per bird
same,"average bacteria count per bird, L. monocytogenes","[4]; Day 16, 20 ppm",1646 per bird
same,"average bacteria count per bird, L. monocytogenes","[4]; Day 18, 10 ppm",2221 per bird
same,"average bacteria count per bird, L. monocytogenes","[4]; Day 18, 20 ppm",1985 per bird
same,"average bacteria count per bird, L. monocytogenes","[4]; Day 20, 10 ppm",2678 per bird
same,"average bacteria count per bird, L. monocytogenes","[4]; Day 20, 20 ppm",2238 per bird
same,"average bacteria count per bird, S. sonnei","[5]; Day 0, 10 ppm",845 per bird
same,"average bacteria count per bird, S. sonnei","[5]; Day 0, 20 ppm",8 per bird
same,"average bacteria count per bird, S. sonnei","[5]; Day 2, 10 ppm",962 per bird
same,"average bacteria count per bird, S. sonnei","[5]; Day 2, 20 ppm",12 per bird
same,"average bacteria count per bird, S. sonnei","[5]; Day 4, 10 ppm",1101 per bird
same,"average bacteria count per bird, S. sonnei","[5]; Day 4, 20 ppm",19 per bird
same,"average bacteria count per bird, S. sonnei","[5]; Day 6, 10 ppm",1288 per bird
same,"average bacteria count per bird, S. sonnei","[5]; Day 6, 20 ppm",37 per bird
same,"average bacteria count per bird, S. sonnei","[5]; Day 8, 10 ppm",1604 per bird
same,"average bacteria count per bird, S. sonnei","[5]; Day 8, 20 ppm",76 per bird
same,"average bacteria count per bird, S. sonnei","[5]; Day 10, 10 ppm",1954 per bird
same,"average bacteria count per bird, S. sonnei","[5]; Day 10, 20 ppm",156 per bird
same,"average bacteria count per bird, S. sonnei","[5]; Day 12, 10 ppm",2347 per bird
same,"average bacteria count per bird, S. sonnei","[5]; Day 12, 20 ppm",323 per bird
same,"average bacteria count per bird, S. sonnei","[5]; Day 14, 10 ppm",2848 per bird
same,"average bacteria count per bird, S. sonnei","[5]; Day 14, 20 ppm",657 per bird
same,"average bacteria count per bird, S. sonnei","[5]; Day 16, 10 ppm",3513 per bird
same,"average bacteria count per bird, S. sonnei","[5]; Day 16, 20 ppm",1286 per bird
same,"average bacteria count per bird, S. sonnei","[5]; Day 18, 10 ppm",4242 per bird
same,"average bacteria count per bird, S. sonnei","[5]; Day 18, 20 ppm",1604 per bird
same,"average bacteria count per bird, S. sonnei","[5]; Day 20, 10 ppm",4941 per bird
same,"average bacteria count per bird, S. sonnei","[5]; Day 20, 20 ppm",1834 per bird
